The values below come from patent US20240217963A1, “RECEPTOR-INTERACTING PROTEIN 1 INHIBITORS, PREPARATIONS, AND USES THEREOF” (SIRONAX LTD., priority 2021, published 2024).

The target in this assay is T1, RIP1 (Homo sapiens, UniProt Q13546).
T1 sequence (Q13546 1-671): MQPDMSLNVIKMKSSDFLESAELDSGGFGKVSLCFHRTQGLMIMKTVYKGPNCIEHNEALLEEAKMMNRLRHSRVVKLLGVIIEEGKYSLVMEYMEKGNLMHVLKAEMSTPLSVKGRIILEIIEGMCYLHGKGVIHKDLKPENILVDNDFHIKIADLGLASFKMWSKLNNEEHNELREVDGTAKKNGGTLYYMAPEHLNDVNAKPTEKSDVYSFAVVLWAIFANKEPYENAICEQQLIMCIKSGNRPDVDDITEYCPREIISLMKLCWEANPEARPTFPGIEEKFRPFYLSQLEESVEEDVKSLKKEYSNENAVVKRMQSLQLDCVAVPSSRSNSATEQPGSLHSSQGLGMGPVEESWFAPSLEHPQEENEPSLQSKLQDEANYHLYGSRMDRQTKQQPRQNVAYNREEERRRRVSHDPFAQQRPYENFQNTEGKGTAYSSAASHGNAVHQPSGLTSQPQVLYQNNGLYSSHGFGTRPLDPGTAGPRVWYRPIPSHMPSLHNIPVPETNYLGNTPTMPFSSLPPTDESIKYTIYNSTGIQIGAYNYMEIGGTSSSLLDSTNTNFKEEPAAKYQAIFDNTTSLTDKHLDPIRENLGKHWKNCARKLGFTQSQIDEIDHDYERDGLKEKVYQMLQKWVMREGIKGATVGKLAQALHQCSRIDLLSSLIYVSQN
The assay can be described thus: Cellular RIP1 inhibitory activity: HT-29 necroptosis (TNFα/SMAC mimetic/zVAD-FMK) CellTiter-Glo viability assay. The assay is classed as cell-based. The following applies: HT-29 cells, TNF-α 10 ng/ml + SMAC mimetic 6 μM + zVAD-FMK 10 μM, 20 hours, geometric mean, read-out: EC50 Values of in vitro Cellular RIP1 Inhibitory Activity. On the procedure: Compounds 1-99 (denoted as Cmpd Nos. 1 through 99 in Table 2 below) of the disclosure were tested for binding and cellular RIP1 inhibitory activity following the experimental procedures described below. Cell Seeding • 1. HT-29 cells were checked every day to make sure that they were healthy and growing as expected. They were subjected to sub-culturing when they were approximately 80% confluent. • 2. The culture medium, McCOY's 5 A medium (Gibco, Cat No. 16600-082) with 10% fetal bovine serum or FBS (Gibco, Cat No. 10099-141C), was pre-warmed in a 37° C. water bath for at least 30 min. • 3. When the cells had reached a desired level of confluency of 80% in a T75 flask, the medium was aspirated, and the cells were washed with warm phosphate buffered saline or PBS two times. • 4. 2-3 ml fresh warm trypsin (Gibco, Cat No. 25200-056) solution was added to the washed cells. The flask with the cells was transferred to a 37° C. incubator. • 5. After 5 minutes, the side of the flask was tapped, and the flask was examined under a microscope for detachment of the cells to the flask. If necessary, the cells were kept in the incubator for an additional 5-10 minutes, with occasional tapping, until lifting was complete. • 6. The trypsin reaction was neutralized by transferring 6-9 ml cell culture medium to sterile 15 ml conical tubes, and by centrifuging the cell culture at 300×g for 7 minutes to pellet the cells (supernatant decanted). • 7. The cells were resuspended in fresh cell culture medium and the cell counting was performed using a hemocytometer. • 8. 100 μl of the resuspended cell culture medium containing ˜5,000 cells were transferred into each well of the sterile 96-well cell culture plate (Corning 3903) and cultured overnight at 37° C. with 5% CO2. Compound Titration and Treatment • 1. All test compounds were dissolved in DMSO (Dimethyl sulfoxide) to create a 20 mM stock. • 2. 3 μl of each compound 20 mM stock was mixed with 27 μl DMSO, and the compound solution was further diluted at a titration ratio of 1:3 (20 μl compound solution+40 μl DMSO) till the 10 points end. • 3. All culture medium was removed from assay plates filled with HT-29 cell cultures. […] 0.5 μL of the diluted compound solution was added to the corresponding 96-well assay plates. • 5. The assay plates were incubated for 20 hours at 37° C. with 5% CO2. Cell Viability Detection • 1. The CellTiter-Glo® Luminescent Cell Viability Assay was employed to detect the ATP levels of viable HT-29 cells. • 2. The CellTiter-Glo® buffer and the lyophilized substrate were equilibriated to room temperature prior to use. • 3. The CellTiter-Glo® substrate was resuspended with CellTiter-Glo® buffer, then mixed by gently vortexing to obtain a homogeneous solution. • 4. 20 μl the enzyme/substrate mixture was transferred by multi-channel pipetting into 96-well assay plates. • 5. The assay plates were placed on an orbital shaker and the contents were shaken for 3 minutes to induce cell lysis. • 6. The assay plates were incubated at room temperature for 10 minutes to stabilize the luminescent signal. • 7. The luminescence signals were read and recorded with EnVision. • 8. The geometric mean EC50 values were calculated from 10 points response dose with duplicates. In Table 2, activity is provided as follows: +++=0.1 nM≤EC50<100 nM; ++=100 nM≤EC50<1000 nM; +=1000 nM≤EC50<10000 nM.
On the technique in general: In ATP-based viability assays light output follows the ATP content of the culture.

A word on the EC50: it is the concentration needed to bring the measured effect to its halfway point. Take `Cc1csc(CN(C)C(=O)C2CCN(c3ncc(F)c(-c4c(C)cnn4C)n3)CC2)n1` [Compound 71, 1-(4-(1,4-dimethyl-1H-pyrazol-5-yl)-5-fluoropyrimidin-2-yl)-N-methyl-N-((4-methylthiazol-2-yl)methyl)piperidine-4-carboxamide]: the EC50 lay in the range of 0.1 to 100 nM. Next, `Cc1cnn(C)c1-c1nc(N2CCC(C(=O)NCc3cc(F)cc(F)c3F)CC2)ncc1F` [Compound 6, 1-(4-(1,4-dimethyl-1H-pyrazol-5-yl)-5-fluoropyrimidin-2-yl)-N-(2,3,5-trifluorobenzyl)piperidine-4-carboxamide]: 0.1 to 100 nM; `[2H]C([2H])(NC(=O)C1CCN(c2ncc(F)c(-c3c(C)cnn3C)n2)CC1)c1cc(F)cc(F)c1F` [Compound 60, 1-(4-(1,4-dimethyl-1H-pyrazol-5-yl)-5-fluoropyrimidin-2-yl)-N-((2,3,5-trifluorophenyl)methyl-d2)piperidine-4-carboxamide]: 0.1 to 100 nM. Regarding `Cc1cnn(C)c1-c1nc(N2CCC(C(=O)NCc3ccn(C)n3)CC2)ncc1F` [Compound 44, 1-(4-(1,4-dimethyl-1H-pyrazol-5-yl)-5-fluoropyrimidin-2-yl)-N-((1-methyl-1H-pyrazol-3-yl)methyl)piperidine-4-carboxamide], the 50% effective concentration (EC50) lay in the range of 1000 to 10000 nM.

For `Cc1cnn(C)c1-c1nc(N2CCC(C(=O)N(O)Cc3cnsc3)CC2)ncc1F` [Compound 51], the concentration giving a half-maximal response (EC50) was 0.1 to 100 nM. On to `Cc1cnn(C)c1-c1nc(N2CCC(C(=O)N(C)Cc3cncs3)CC2)ncc1F` [Compound 98, 1-(4-(1,4-dimethyl-1H-pyrazol-5-yl)-5-fluoropyrimidin-2-yl)-N-methyl-N-(thiazol-5-ylmethyl)piperidine-4-carboxamide], for which the EC50 lay within 0.1 to 100 nM. For `[2H]C([2H])([2H])N(C(=O)C1CCN(c2ncc(F)c(-c3nnc(C)s3)n2)CC1)C([2H])([2H])c1cc(F)cc(F)c1F` [Compound 97, 1-(5-fluoro-4-(5-methyl-1,3,4-thiadiazol-2-yl)pyrimidin-2-yl)-N-(methyl-d3)-N-((2,3,5-trifluorophenyl)methyl-d2)piperidine-4-carboxamide], the EC50 fell in the range of 0.1 to 100 nM. Turning to `Cc1cnn(C)c1-c1nc(N2CCC(C(=O)N(C)Cc3nc(C)c(C)s3)CC2)ncc1F` [Compound 90, 1-(4-(1,4-dimethyl-1H-pyrazol-5-yl)-5-fluoropyrimidin-2-yl)-N-((4,5-dimethylthiazol-2-yl)methyl)-N-methylpiperidine-4-carboxamide], the EC50 fell in the range of 0.1 to 100 nM. As to `Cc1cnn(C)c1-c1nc(N2CCC(C(=O)NCC3CCCCC3)CC2)ncc1F` [Compound 28, N-(cyclohexylmethyl)-1-(4-(1,4-dimethyl-1H-pyrazol-5-yl)-5-fluoropyrimidin-2-yl)piperidine-4-carboxamide], the EC50 is 0.1 to 100 nM. For `Cc1cnn(C)c1-c1nc(N2CCC(C(=O)N(O)CC3=CCCCC3)CC2)ncc1F` [Compound 48, N-(cyclohex-1-en-1-ylmethyl)-1-(4-(1,4-dimethyl-1H-pyrazol-5-yl)-5-fluoropyrimidin-2-yl)-N-hydroxypiperidine-4-carboxamide] the value was 0.1 to 100 nM; for `Cc1nc(C)n(-c2nc(N3CCC(C(=O)N(O)Cc4cc(F)cc(F)c4)CC3)ncc2F)n1` [Compound 1, N-(3,5-difluorobenzyl)-1-(4-(3,5-dimethyl-1H-1,2,4-triazol-1-yl)-5-fluoropyrimidin-2-yl)-N-hydroxypiperidine-4-carboxamide], 0.1 to 100 nM.

In the case of `Cc1cnn(C)c1-c1nc(N2CCC(C(=O)N(O)Cc3ccc(F)cn3)CC2)ncc1F` [Compound 10, 1-(4-(1,4-dimethyl-1H-pyrazol-5-yl)-5-fluoropyrimidin-2-yl)-N-((5-fluoropyridin-2-yl)methyl)-N-hydroxypiperidine-4-carboxamide], the EC50 was 0.1 to 100 nM. Next, `Cc1cnn(C)c1-c1nc(N2CCC(C(=O)N(O)Cc3cncs3)CC2)ncc1F` [Compound 16, 1-(4-(1,4-dimethyl-1H-pyrazol-5-yl)-5-fluoropyrimidin-2-yl)-N-hydroxy-N-(thiazol-5-ylmethyl)piperidine-4-carboxamide]: 0.1 to 100 nM. As for `Cc1cnn(C)c1-c1nc(N2CCC(C(=O)N(C)Cc3cscn3)CC2)ncc1F` [Compound 93, 1-(4-(1,4-dimethyl-1H-pyrazol-5-yl)-5-fluoropyrimidin-2-yl)-N-methyl-N-(thiazol-4-ylmethyl) piperidine-4-carboxamide], the EC50 lay within 0.1 to 100 nM. Next, `Cc1nc(CNC(=O)C2CCN(c3ncc(F)c(-c4c(C)cnn4C)n3)CC2)c(C)s1` [Compound 56, 1-(4-(1,4-dimethyl-1H-pyrazol-5-yl)-5-fluoropyrimidin-2-yl)-N-((2,5-dimethylthiazol-4-yl)methyl)piperidine-4-carboxamide]: 0.1 to 100 nM; `CCN(Cc1cscn1)C(=O)C1CCN(c2ncc(F)c(-c3c(C)cnn3C)n2)CC1` [Compound 94, 1-(4-(1,4-dimethyl-1H-pyrazol-5-yl)-5-fluoropyrimidin-2-yl)-N-ethyl-N-(thiazol-4-ylmethyl) piperidine-4-carboxamide]: 0.1 to 100 nM.

In the case of `Cc1ncc(CN(C)C(=O)C2CCN(c3ncc(F)c(-c4c(C)cnn4C)n3)CC2)s1` [Compound 91, 1-(4-(1,4-dimethyl-1H-pyrazol-5-yl)-5-fluoropyrimidin-2-yl)-N-methyl-N-((2-methylthiazol-5-yl)methyl)piperidine-4-carboxamide], the EC50 fell in the range of 0.1 to 100 nM. Take `Cc1cnn(C)c1-c1nc(N2CCN(C(=O)N(O)Cc3cc(F)cc(F)c3)CC2)ncc1F` [Compound 29, N-(3,5-difluorobenzyl)-4-(4-(1,4-dimethyl-1H-pyrazol-5-yl)-5-fluoropyrimidin-2-yl)-N-hydroxypiperazine-1-carboxamide]: the EC50 was 0.1 to 100 nM. For `Cc1nnc(CN(C)C(=O)C2CCN(c3ncc(F)c(-c4c(C)cnn4C)n3)CC2)s1` [Compound 87, 1-(4-(1,4-dimethyl-1H-pyrazol-5-yl)-5-fluoropyrimidin-2-yl)-N-methyl-N-((5-methyl-1,3,4-thiadiazol-2-yl)methyl)piperidine-4-carboxamide] the value was 100 to 1000 nM; for `Cc1cnn(C)c1-c1cc(N2CCC(C(=O)N(C)Cc3nccs3)CC2)c(F)cn1` [Compound 86, 1-(2-(1,4-dimethyl-1H-pyrazol-5-yl)-5-fluoropyridin-4-yl)-N-methyl-N-(thiazol-2-ylmethyl)piperidine-4-carboxamide], 0.1 to 100 nM.

Consider `Cn1ncnc1-c1nc(N2CCC(C)(C(=O)N(O)Cc3cc(F)cc(F)c3)CC2)ncc1F` [Compound 18, N-(3,5-difluorobenzyl)-1-(5-fluoro-4-(1-methyl-1H-1,2,4-triazol-5-yl)pyrimidin-2-yl)-N-hydroxy-4-methylpiperidine-4-carboxamide], for which the EC50 lay within 0.1 to 100 nM.

`Cc1cnn(C)c1-c1nc(N2CCC(C(=O)NCc3cncs3)CC2)ncc1F` [Compound 58]: the concentration for a half-maximal effect (EC50) lay in the range of 100 to 1000 nM.
